In one series the test system is HEK293 cells. As to the kind of experiment: DiOC6 staining of mitochondrial proton gradient in HEK293 cells. The class given is cell-based. Conditions: DiOC6-stained HEK293 cells. As to the method: First, HEK293 cells were seeded in a 6-well plate at a density of 2×10^6 cells/well. After 24 hours, S1c25a10 gene cloned in pcDNA 3.1 vector was transfected into the cells using Lipofectamine 2000. As a negative control there were used cells having only the vector transfected, and as positive controls there were used cells having mouse UCP1 transfected and cells having human UCP3 transfected.
After 48 hours from transfection of the gene, the mitochondrial gradient sensitivity-indicating agent DiOC6 (3-3′-dihexyloxacarbocyanine iodide) was used for staining. The staining was performed by treating the cells with 0.3 μM DiOC6 for 20 minutes followed by rinsing twice with PBS. DiOC6 binds to mitochondria in greater amount as the proton gradient increases, emitting strong fluorescence. On the other hand, it binds to mitochondria in lower amount as the proton gradient decreases, resulting in weaker fluorescent intensity.
FIG. 1(a) is a confocal micrograph showing DiOC6-stained HEK293 cells treated with CCCP (carbonyl cyanide m-chlorophenylhydrazone) which uncouples the intracellular mitochondrial proton gradient, and FIG. 1(b) is a photograph of HEK293 cells without CCCP treatment. With the untreated HEK293 cells, the intracellular mitochondria are clearly stained by outlining dots. […] It was thus confirmed that the mitochondria had been stained in a proton gradient-specific manner. […]

The next series has as its system S1c25a10 gene. As to the kind of experiment: S1c25a10 expression in white adipocytes (WAT) of mouse models, U74A / 25K1.8 chip. The series is classed as in vivo. Conditions: non-treated C57BL/6N mice defined as 1. As to the method:
A mouse model of obesity induced by administration of an NPY Y5 agonist was prepared in the following manner. Nine- to twelve-week-old male mice (C57BL/6J: Clea Japan) were raised under conditions with a room temperature of 23±2° C. and a humidity of 55±15%, with one mouse in each plastic cage. The mice were raised under a 12 hour lightness/darkness cycle, with lights on at 7:00 am and lights off at 7:00 pm. The mice were also given free access to feed (CE-2 (25.4 wt % protein, 50.3 wt % carbohydrate, 4.4 wt % lipid), Clea Japan) and water.
The mice were anesthetized with 80 mg/kg sodium pentobarbital (Dynabot) and a 28-gauge sterilized brain infusion cannula (Alzet Co.) was stereotactically implanted in the right cerebral ventricle. The cannula was positioned 0.4 mm behind and 0.8 mm to the side of the bregma, and to a depth of 2 mm, and was anchored vertically with respect to the cranial bone using dental cement. A polyvinyl chloride tube was used to connect the cannula to an osmotic pump (Model #2002: Alzet Co.) filled with 10 mM phosphate buffer containing 0.05% bovine serum albumin (BSA). A solution of D-Try^34 NPY in 10 mM PBS (containing 0.05% BSA) (prepared for 5 μg/day) was filled into the pump, and the pump was implanted subcutaneously at the back of the mouse for continuous infusion. An antibiotic (50 mg/kg cefamedine, product of Fujisawa Pharmaceutical Co., Ltd.) was also subcutaneously injected.
The mice were divided into three groups: a normally-fed group given infusion of the solvent alone (vehicle group); an obesity-induced group given infusion of D-Try^34 NPY (NYP Y5 agonist) with an increased food amount (ad lib fed group); and a group given infusion of D-Try^34 NPY but with food restricted to the same amount as the vehicle group (pair-fed group).
A mouse model of obesity induced by administration of MCH (melanin-concentrating hormone) was prepared in the following manner. Thirteen-week-old male mice (C57BL/6J: Clea Japan) were raised under conditions with a room temperature of 23±2° C. and a humidity of 55±15%, with one mouse in each plastic cage. The mice were raised under a 12 hour lightness/darkness cycle, with lights on at 7:00 am and lights off at 7:00 pm. The mice were also given free access to food (CE-2 (25.4 wt % protein, 50.3 wt % carbohydrate, 4.4 wt % lipid), Clea Japan) and water. […]
The mouse models prepared in Preparation Examples 1-4 were used for measurement of S1c25a10 expression in white adipocytes (WAT). The expression levels were measured by treating RNA extracted from white adipocytes from each mouse model using a mouse U74A chip (Affymetrix) and a mouse 25K1.8 chip (Rossetta).

A further series relates to human S1c25a10 gene. The series is described as follows: Suppression of human S1c25a10 expression by siRNA transfection (RNAi). The series is classed as cell-based. Conditions: siRNA to human S1c25a10 gene. The text has this:
(§1) First, a silencer siRNA construction kit (Ambion Inc.) was used to synthesize siRNA. Next, in order to determine the optimum sequences for human or mouse S1c25a10, twelve different sequences were examined based on suppression of S1c25a10 expression. FIG. 6(a) and (b) show the relative expression levels of S1c25a10 gene in each of the siRNA-transfected cells.
The sequence of each siRNA is shown below. The “Position” indicates the corresponding nucleic acid position of the human S1c25a10 gene (NM_012140) for each siRNA.
Next, siRNA-transfected cells were prepared. For siRNA transfection, the cells were seeded on a 6-well plate at a density of 2×10^4 cells/well. After 24 hours, the siRNA (H4 or H10) was transfected into the cells using Oligofectamine (Invitrogen). On the 2nd day after transfection, the cells were harvested and RNA was prepared using RNeasy (Qiagen). cDNA was prepared from the RNA by quantitative RT-PCR (Applied Biosystems), for quantitation of the S1c25a10 and ACC1 expression levels.

The subject of the next series is mouse S1c25a10 gene. The series is described as follows: Suppression of mouse S1c25a10 expression by siRNA transfection (RNAi). The series is classed as cell-based. The note with it: siRNA to mouse S1c25a10 gene.
Text: as §1
The nucleotide sequences of siRNA corresponding to the mouse S1c25a10 gene (NM_013770) are also shown below.

[1] abbreviates: administered mice, ad lib fed (FF).

Where no end group is shown, it is not given here.

On to `N#CC(C#N)=NNc1cccc(Cl)c1` [CCCP, carbonyl cyanide m-chlorophenylhydrazone], for which, in the series on HEK293 cells (confocal micrograph, versus untreated cells), the fluorescent intensity result is “significantly reduced”. The molecule also returned a Mean fluorescent intensity with HEK293 cells (flow cytometer) of 5.4.
As to D-Try^34 NPY, the Slc25a10 expression in the series on S1c25a10 gene (setting [1]) is 3.0; in the series on S1c25a10 gene (pair feeding (PF) mice), 1.9.
As for “H4: siRNA to human S1c25a10 gene, Position 556, SEQ ID NOs: 9 and 10 (chain 1 AAACAGTCTCCTGAGACCCTCCCTGTCTC; chain 2 AAGAGGGTCTCAGGAGACTGTCCTGTCTC; listed as DNA, chemistry not given here)”, the “S1c25a10 gene expression (inhibiting effect)” value in the series with human S1c25a10 gene is recorded as “particularly powerful inhibiting effects”; with human S1c25a10 gene (listed as siRNA consisting of nucleic acids of SEQ ID NOs: 9 and 10), “powerfully inhibit S1c25a10 expression”; in the series on human S1c25a10 gene (listed as siRNA consisting of the nucleic acids of SEQ ID NOs: 9 and 10), “significantly reduce expression”.
As to “M8: siRNA to mouse S1c25a10 gene, Position 1159, SEQ ID NOs: 41 and 42 (chain 1 AAGTGGCACCTCTGCCCTACTCCTGTCTC; chain 2 AAAGTAGGGCAGAGGTGCCACCCTGTCTC; listed as DNA, chemistry not given here)”, the “S1c25a10 gene expression (inhibiting effect)” value is recorded as “particularly powerful inhibiting effects” in the series on mouse S1c25a10 gene; “powerfully inhibit S1c25a10 expression” in the series with mouse S1c25a10 gene (listed as siRNA consisting of nucleic acids of SEQ ID NOs: 41 and 42); “significantly reduce expression” with mouse S1c25a10 gene (listed as siRNA consisting of the nucleic acids of SEQ ID NOs: 41 and 42).
Regarding “melanin-concentrating hormone (DFDMLRCMLGRVYRPCWQV; ends and bridges not checked; cysteine pairing not given here; UniProt P56942 147-165, looked up) [MCH, MCH infused i.c.v. to induce obesity in mice]”, the results for the Slc25a10 expression with S1c25a10 gene (setting [1]) and with S1c25a10 gene (pair feeding (PF) mice) were 1.7 and 2.4, respectively.
